Patent publication US20240415820A1, “COMBINATIONS FOR RETAINING FOLLICLES RESERVE” (SHEBA IMPACT LTD., priority 2021, published 2024)

How the values were obtained:
[1] = system: primordial follicles (PMF); experiment: In vivo mouse model of Cy-induced follicle depletion, follicle counting (H&E)
Protocol: Ovaries removed 12 h, 24h, 3 days or 21 days following Cy treatment were fixed in PFA, paraffin-embedded and serially sectioned (5-μm).
Follicle counting: H&E staining was used for differential follicle counts in ovaries removed 3 and 21 days following Cy treatment and conducted as previously described. […] Atretic follicles were not calculated. Only follicles with non-atretic and healthy granulosa cells were counted for total number

primary follicles = experiment: Proliferation assay, Ki-67 staining of primary follicles; type: in vivo, mouse
Protocol: Mild proliferation: 1-2 granulosa cells per follicle stained for Ki-67. Extensive proliferation: 3 or more granulosa cells per follicle stained for Ki-67. An average number of primary follicles stained in each category in 2-3 sections per ovary was calculated.

rpS6 = experiment: Western blotting of whole ovaries, prpS6/rpS6; type: in vivo, mouse; conditions: whole ovaries 24 hours after Cy 150 mg/kg, alone or co-treated
mTOR = experiment: Western blotting of whole ovaries, pmTOR/mTOR; type: in vivo, mouse; conditions: whole ovaries 24 hours after Cy 150 mg/kg, alone or co-treated
PMF oocytes [2] = experiment: DNA damage assay, γH2AX staining; type: in vivo, mouse; conditions: ovaries removed 12 h after Cy, alone or co-treated; FIG. 7A
Protocol: BALB/c female mice aged 12 days or 8 weeks (Envigo, Israel) were given a single intraperitoneal injection of 200 μl of PBS or an equal volume of 150 mg/kg Cy (Sigma-Aldrich), 5 mg/kg temsirolimus (Selleck Chemicals; 5 doses in 7 days before Cy treatment, Bozec et al., 2011; Wan et al., 2006) or 5 μg/mouse human C-terminus recombinant AMH (rAMH R&D Systems), 5 doses in 24 hours—every 6 hours following the administration of Cy (Roness et al., 2019). Ovaries were collected either 12 or 24 hours after Cy treatment for protein analysis and histochemical staining, and 3 or 21 days after Cy treatment for H&E staining and follicle counts. Ovaries were removed and placed immediately into either RNA later solution or 4% paraformaldehyde. All procedures were approved by the Institutional Animal Care and Use Institutional Ethics Committee.
DNA damage assay: Sample sections (5μ) from ovaries removed 12h after Cy treatment were stained for DNA damage evaluation with γH2AX antibody, and all the PMF oocytes were classified as positive/negative for DNA damage. Oocytes were counted from 6-8 ovaries and the ratio of stained oocytes to total oocytes was calculated.

PMF oocytes [3] = experiment: Apoptosis assay, cPARP staining; type: in vivo, mouse; conditions: ovaries removed 24 h after Cy, alone or co-treated; FIG. 7B
Protocol: Apoptosis assay: Sample sections (5μ) from ovaries removed 24h after Cy treatment were stained for apoptotic marker cPARP antibody, and all the PMF oocytes were classified as positive/negative for apoptosis. Oocytes were counted from 6-8 ovaries and the ratio of stained oocytes to total oocytes was calculated.

[4] = 3 cycles of mating after Cy, alone or co-treated
[5] = system: primordial follicles (PMF); experiment: Ex vivo culture of neonatal mouse ovaries with PM, PMF counting (H&E); type: cell-based; conditions: ex vivo ovaries of 12 days mice, PM 4 hours, with or without 400 nM Tem; FIG. 2A
[6] = Cy 150 mg/kg, with or without Tem, FIG. 3B

O=P1(N(CCCl)CCCl)NCCCO1 (stereo not shown) [Cy, cyclophosphamide]
PMF loss ([1]; mouse, in vivo): 77%
PMFs 3 days after Cy treatment ([1]; mouse, in vivo): 59.5±2.7
number of PMFs three weeks after treatment ([1]; mouse, in vivo): 32±2.12
ratio between growing and dormant follicles ([1]; mouse, in vivo): 1.31
total number of growing follicles 3 days after Cy treatment ([1]; mouse, in vivo): 78.5±6.1
Granulosa cells in primary follicles, Extensive proliferation (primary follicles; mouse, in vivo): 21%
Granulosa cells in primary follicles, Mild proliferation (primary follicles; mouse, in vivo): 63%
Granulosa cells in primary follicles, No proliferation (primary follicles; mouse, in vivo): 16%
primary follicles classified as proliferating (either mild or extensive proliferation) (primary follicles; mouse, in vivo): 84%
relative band intensity of phosphorylated rpS6 (prpS6/rpS6 ratio) (rpS6): 1.88
relative band intensity of phosphorylated mTOR (pmTOR/mTOR ratio) (mTOR): 1.44
PMF oocytes stained positive for γH2AX (DNA damage) (PMF oocytes [2]): more than 90%
PMF oocytes stained positive for cPARP (apoptosis) (PMF oocytes [3]): 22%
mean litter size [4]: 4.62

CO[C@H]1C[C@@H]2CC[C@@H](C)[C@@](O)(O2)C(=O)C(=O)N2CCCC[C@H]2C(=O)O[C@H]([C@H](C)C[C@@H]2CC[C@@H](OC(=O)C(C)(CO)CO)[C@H](OC)C2)CC(=O)[C@H](C)/C=C(\C)[C@@H](O)[C@@H](OC)C(=O)[C@H](C)C[C@H](C)/C=C/C=C/C=C/1C [Tem, Temsirolimus]
PMFs on day 7 of culture [5]: 124±5.9
PMF count 21 days after Cy treatment ([1]; 8-week-old mice, single dose Cy 150 mg/kg, with or without Tem 5 mg/kg 5 doses, FIG. 3A): 122.5±1.7
ratio between growing and dormant follicles ([1]; 3 days after Cy 150 mg/kg, with or without Tem, FIG. 3C): 0.66
number of PMFs three weeks after treatment ([1]; Cy 150 mg/kg, with or without Tem and/or rAMH (5 μg/mouse, 5 doses), FIG. 4): 68.5±2.69
PMFs 3 days after Cy treatment [1, 6]: 101.6±8.9
total number of growing follicles 3 days after Cy treatment [1, 6]: 65.6±5.2
PMF loss ([1]; three weeks after Cy 150 mg/kg, with or without co-treatment, FIG. 4): 52%
Granulosa cells in primary follicles, Mild proliferation (primary follicles; Ki-67, 1-2 granulosa cells stained, ovaries removed 24 hours after Cy 150 mg/kg or PBS): 22%
Granulosa cells in primary follicles, Extensive proliferation (primary follicles; Ki-67, 3 or more granulosa cells stained, ovaries removed 24 hours after Cy 150 mg/kg or PBS): 5%
primary follicles classified as proliferating (either mild or extensive proliferation) (primary follicles; Ki-67, 24 hours after Cy, alone or co-treated): 32%
Granulosa cells in primary follicles, No proliferation (primary follicles; Ki-67, ovaries removed 24 hours after Cy 150 mg/kg or PBS): 73%
relative band intensity of phosphorylated rpS6 (prpS6/rpS6 ratio) (rpS6): 0.3
relative band intensity of phosphorylated mTOR (pmTOR/mTOR ratio) (mTOR): 0.57
PMF oocytes stained positive for cPARP (apoptosis) (PMF oocytes [3]): 14%
